Assay results from patent publication US4656173A, “Antipsychotic benzisothiazole S-oxide compound” (Bristol-Myers Company, priority 1985, dated 1987).

Columns and labels:
[1] = biological target: Muscarinic receptor binding site; assay: In vitro receptor binding, muscarinic; conditions: predictive correlate: dry mouth, constipation
[2] = Metabolic interconversion in rats; format: in vivo
Text: (§1) Currently, there is insufficient information available to confirm that compound I is a metabolite of BMY 13859. […] Such interconversions have been previously reported, as for sulindac, supra.

[3] = biological target: α-adrenergic (α1) receptor binding site; assay: In vitro receptor binding, α-adrenergic (α1); conditions: predictive correlate: postural hypotension, palpitations
[4] = Blood plasma concentration after dosing of rats; format: in vivo; conditions: 30 minutes after dosing
Text: In this regard, compound I represents an antipsychotic agent giving an improved neuropharmacological profile compared with BMY 13859.

[5] = biological target: Dopaminergic (D2) receptor binding site (Homo sapiens, UniProt P14416); assay: In vitro receptor binding, dopaminergic (D2); conditions: predictive correlate: antipsychotic efficacy, EPS liability
Dopaminergic (D2) receptor binding site, sequence (P14416 whole entry): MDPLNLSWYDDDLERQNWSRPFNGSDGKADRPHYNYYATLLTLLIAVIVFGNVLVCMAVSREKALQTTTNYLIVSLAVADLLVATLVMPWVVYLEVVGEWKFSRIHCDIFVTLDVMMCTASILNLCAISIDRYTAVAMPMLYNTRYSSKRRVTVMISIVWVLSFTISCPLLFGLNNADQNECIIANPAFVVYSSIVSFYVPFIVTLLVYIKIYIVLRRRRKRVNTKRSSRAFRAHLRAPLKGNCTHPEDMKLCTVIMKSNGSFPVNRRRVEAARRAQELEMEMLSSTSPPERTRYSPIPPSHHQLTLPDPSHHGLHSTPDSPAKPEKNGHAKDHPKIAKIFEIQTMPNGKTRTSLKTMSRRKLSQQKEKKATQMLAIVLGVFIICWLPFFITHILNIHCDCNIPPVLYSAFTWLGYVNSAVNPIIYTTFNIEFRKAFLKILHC

[6] = biological target: Serotoninergic (S2) receptor binding site (Homo sapiens, UniProt P28223); assay: In vitro receptor binding, serotoninergic (S2); conditions: predictive correlate: lack of EPS (?)
Serotoninergic (S2) receptor binding site, sequence (P28223 whole entry): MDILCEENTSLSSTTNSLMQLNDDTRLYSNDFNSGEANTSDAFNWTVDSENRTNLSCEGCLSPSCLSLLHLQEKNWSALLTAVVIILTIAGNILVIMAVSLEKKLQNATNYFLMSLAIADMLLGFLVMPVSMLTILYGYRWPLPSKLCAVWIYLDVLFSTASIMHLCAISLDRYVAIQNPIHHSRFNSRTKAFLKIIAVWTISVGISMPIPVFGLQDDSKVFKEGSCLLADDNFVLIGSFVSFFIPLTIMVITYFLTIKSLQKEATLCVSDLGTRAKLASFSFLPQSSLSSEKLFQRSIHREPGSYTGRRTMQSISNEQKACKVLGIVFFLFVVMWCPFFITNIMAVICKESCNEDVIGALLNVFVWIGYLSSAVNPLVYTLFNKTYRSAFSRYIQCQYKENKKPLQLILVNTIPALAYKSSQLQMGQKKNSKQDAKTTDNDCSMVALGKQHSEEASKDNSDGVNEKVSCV

[7] = Metabolic interconversion in humans; format: in vivo; conditions: high pressure liquid chromatography
Text: as §1

[8] = test system: apomorphine-induced stereotypy (dopaminergic activity in rats); assay: Inhibition of Apomorphine-Induced (APO) Stereotypy; format: in vivo
Text: 2. Inhibition of Apomorphine-Induced (APO) Stereotypy --an assessment of blockade of dopaminergic activity in rats as measured by attenuation of the behavioral syndrome caused by the dopamine agonist, apomorphine. cf: Janssen, et al., Arzneimittel. Forsch., 17, 841 (1966).

[9] = test system: avoidance response to electrical shock in trained fasted rats; assay: Conditioned Avoidance Response (CAR); format: in vivo
Text: 1. Conditioned Avoidance Response (CAR)--measure of a drug's tranquilizing activity as determined by its attenuation of avoidance response to electrical shock in trained fasted rats. cf: Albert, Pharmacologist, 4, 152 (1962); Wu, et al, J. Med. Chem., 12, 876-881 (1969).

[10] = test system: drug-induced catalepsy in rats; assay: Catalepsy (induction); format: in vivo; conditions: oral
Text: (§2) 3. Catalepsy--drug-induced catalepsy in rats is predictive of potential extrapyramidal symptoms (EPS) in man. cf: Costall, et al, Psychopharmacologia, 34, 233-241 (1974); Berkson, J. Amer. Statist. Assoc., 48, 565-599 (1953).

Catalepsy (induction) = format: in vivo; conditions: rat, in vivo; oral; rats; read-out: oral ED50 in inducing catalepsy
Text: as §2

[11] = Antipsychotic activity testing of dioxide (II); conditions: in vivo
[12] = Kwan and Heimlich, Internat. J. of Pharmaceutics, 6, (1980) 237-241, cited for biotransformations; cited from earlier work

Compound | IC50 [1] [nM] | IC50 [3] [nM] | concentration of administered agent in blood plasma versus the other (interconverted) agent [4] | IC50 [5] [nM] | IC50 [6] [nM] | further results
O=C1CC2(CCCC2)CC(=O)N1CCCCN1CCN(c2nsc3ccccc23)CC1 [BMY 13859, reference compound] | > 1000 | 50 | several-fold higher in concentration | 10 | 1 | compound formed after administration of BMY 13859 ([2]; high pressure liquid chromatography): a compound which co-elutes (high pressure liquid chromatography) with compound I is formed; compound formed after administration of BMY 13859 [7]: a compound which co-elutes (high pressure liquid chromatography) with compound I is formed
O=C1CC2(CCCC2)CC(=O)N1CCCCN1CCN(c2n[s+]([O-])c3ccccc23)CC1 (stereo not shown) [Compound I, 8-[4-[4-(1-oxo-1,2-benzisothiazol-3-yl)-1-piperazinyl]butyl]-8-azaspiro[4.5]decane-7,9-dione] | > 1000 | 330 | several-fold higher in concentration | > 1000 | 300 | compound formed after administration of compound I [2]: authentic BMY 13859 is formed in rats; activity in the APO stereotypy test [8]: potent activity; activity in the CAR test [9]: potent activity; activity in inducing catalepsy [10]: inactive; ED50 (Catalepsy (induction)): > 30 mg/kg
O=C1CC2(CCCC2)CC(=O)N1CCCCN1CCN(C2=NS(=O)(=O)c3ccccc32)CC1 [II] |  |  |  |  |  | antipsychotic activity [11]: devoid of antipsychotic activity
CC1=C(CC(=O)O)c2cc(F)ccc2C1=Cc1ccc([S+](C)[O-])cc1 (stereo not shown) [sulindac] |  |  |  |  |  | pharmacological activity of sulindac [12]: appears to reside only in the sulfide metabolite
